Source: ChEMBL document CHEMBL1201862, “PubChem BioAssay data set” (2004)
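Test compounds were applied to cells in 96-well plates for 48 hours at 5 doses. GI50 is the concentration that inhibits growth by half.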 The source made the active and inactive calls. Rule as the data show it: active = GI50 up to about 1.1 µM and inactive = higher.

Key:
Assay in all cases: growth of human tumour cells (NCI), 48 h
[1] = test system: SK-MEL-28
[2] = test system: MDA-MB-435
[3] = test system: HL-60
[4] = test system: UACC-62
[5] = test system: SF-295
[6] = test system: SNB-19
[7] = test system: MDA-N
[8] = test system: SF-268
[9] = test system: IGROV-1
[10] = test system: Malme-3M
[11] = test system: SK-MEL-5
[12] = test system: OVCAR-4
[13] = test system: NCI-H226
[14] = test system: ACHN
[15] = test system: 786-0
[16] = test system: KM12
[17] = test system: HCT-15
[18] = test system: HOP-92
[19] = test system: SW-620
[20] = test system: HOP-62
[21] = test system: PC-3
[22] = test system: MOLT-4
[23] = test system: CAKI-1
[24] = test system: SN12C
[25] = test system: A498
[26] = test system: OVCAR-8
[27] = test system: NCI-H522
[28] = test system: HCC 2998
[29] = test system: Hs-578T
[30] = test system: RPMI-8226
[31] = test system: SK-MEL-2
[32] = test system: NCI-H460
[33] = test system: SK-OV-3
[34] = test system: TK-10
[35] = test system: OVCAR-5
[36] = test system: SR
[37] = test system: SF-539
[38] = test system: K562
[39] = test system: CCRF-CEM
[40] = test system: UACC-257
[41] = test system: SNB-75
[42] = test system: A549
[43] = test system: NCI/ADR-RES
[44] = test system: DU-145
[45] = test system: BT-549
[46] = test system: NCI-H23
[47] = test system: EKVX
[48] = test system: T47D
[49] = test system: HT-29
[50] = test system: LOX IMVI
[51] = test system: HCT-116
[52] = test system: MCF7
[53] = test system: U-251
[54] = test system: COLO 205
[55] = test system: OVCAR-3
[56] = test system: MDA-MB-231
[57] = test system: RXF 393
[58] = test system: M14
[59] = test system: UO-31

## Clc1cc(Cl)cc(/C=N/C23CC4CC(CC(C4)C2)C3)c1
[1]
  GI50: > 10 µM (inactive)
[2]
  GI50: > 10 µM (inactive)
[3]
  GI50: > 10 µM (inactive)
[4]
  GI50: > 10 µM (inactive)
[5]
  GI50: > 10 µM (inactive)
[6]
  GI50: > 10 µM (inactive)
[7]
  GI50: > 10 µM (inactive)
[8]
  GI50: > 10 µM (inactive)
[9]
  GI50: > 10 µM (inactive)
[10]
  GI50: > 10 µM (inactive)
[11]
  GI50: > 10 µM (inactive)
[12]
  GI50: > 10 µM (inactive)
[13]
  GI50: > 10 µM (inactive)
[14]
  GI50: > 10 µM (inactive)
[15]
  GI50: > 10 µM (inactive)
[16]
  GI50: > 10 µM (inactive)
[17]
  GI50: > 10 µM
[18]
  GI50: > 10 µM (inactive)
[19]
  GI50: > 10 µM (inactive)
[20]
  GI50: > 10 µM (inactive)
[21]
  GI50: > 10 µM (inactive)
[22]
  GI50: > 10 µM (inactive)
[23]
  GI50: > 10 µM (inactive)
[24]
  GI50: > 10 µM (inactive)
[25]
  GI50: > 10 µM (inactive)
[26]
  GI50: > 10 µM (inactive)
[27]
  GI50: > 10 µM (inactive)
[28]
  GI50: > 10 µM (inactive)
[29]
  GI50: > 10 µM (inactive)
[30]
  GI50: > 10 µM (inactive)
[31]
  GI50: > 10 µM (inactive)
[32]
  GI50: > 10 µM (inactive)
[33]
  GI50: > 10 µM (inactive)
[34]
  GI50: > 10 µM (inactive)
[35]
  GI50: > 10 µM (inactive)
[36]
  GI50: > 10 µM (inactive)
[37]
  GI50: > 10 µM (inactive)
[38]
  GI50: > 10 µM (inactive)
[39]
  GI50: > 10 µM (inactive)
[40]
  GI50: > 10 µM (inactive)
[41]
  GI50: > 10 µM (inactive)
[42]
  GI50: > 10 µM (inactive)
[43]
  GI50: > 10 µM (inactive)
[44]
  GI50: > 10 µM (inactive)
[45]
  GI50: > 10 µM (inactive)
[46]
  GI50: > 10 µM (inactive)
[47]
  GI50: > 10 µM (inactive)
[48]
  GI50: > 10 µM (inactive)
[49]
  GI50: > 10 µM (inactive)
[50]
  GI50: > 10 µM (inactive)
[51]
  GI50: > 10 µM (inactive)
[52]
  GI50: 7.59 µM (inactive)
[53]
  GI50: > 10 µM (inactive)
[54]
  GI50: > 10 µM (inactive)
[55]
  GI50: > 10 µM (inactive)
[56]
  GI50: > 10 µM (inactive)
[57]
  GI50: > 10 µM (inactive)
[58]
  GI50: > 10 µM (inactive)

## CC(C)=CCOc1cc(NC(=S)c2ccsc2C)ccc1Cl
[1]
  GI50: > 100 µM (inactive)
[2]
  GI50: > 100 µM (inactive)
[3]
  GI50: 44.1 µM (inactive)
[4]
  GI50: 15.6 µM (inactive)
[5]
  GI50: 36 µM (inactive)
[6]
  GI50: 31.8 µM (inactive)
[7]
  GI50: > 100 µM (inactive)
[8]
  GI50: 32.3 µM (inactive)
[9]
  GI50: 4.43 µM (inactive)
[10]
  GI50: 49 µM (inactive)
[11]
  GI50: 36.1 µM (inactive)
[12]
  GI50: 16.7 µM (inactive)
[13]
  GI50: 13.5 µM (inactive)
[14]
  GI50: 16.7 µM (inactive)
[15]
  GI50: 40.2 µM (inactive)
[16]
  GI50: > 100 µM (inactive)
[17]
  GI50: > 100 µM
[18]
  GI50: 5.87 µM (inactive)
[19]
  GI50: > 100 µM (inactive)
[20]
  GI50: 21.4 µM (inactive)
[21]
  GI50: 17.8 µM (inactive)
[22]
  GI50: 20.2 µM (inactive)
[23]
  GI50: > 100 µM (inactive)
[24]
  GI50: 19 µM (inactive)
[25]
  GI50: 27.3 µM (inactive)
[26]
  GI50: 44.4 µM (inactive)
[27]
  GI50: 54.5 µM (inactive)
[28]
  GI50: 3.49 µM (inactive)
[29]
  GI50: 12.3 µM (inactive)
[30]
  GI50: 15.7 µM (inactive)
[31]
  GI50: 27.4 µM (inactive)
[32]
  GI50: 12.4 µM (inactive)
[33]
  GI50: 24.5 µM (inactive)
[34]
  GI50: 93.5 µM (inactive)
[35]
  GI50: 86.7 µM (inactive)
[36]
  GI50: 18.7 µM (inactive)
[37]
  GI50: 55.1 µM (inactive)
[38]
  GI50: 7.48 µM (inactive)
[39]
  GI50: 39.6 µM (inactive)
[40]
  GI50: 88.1 µM (inactive)
[41]
  GI50: 14.1 µM (inactive)
[59]
  GI50: 5.85 µM (inactive)
[42]
  GI50: 46.7 µM (inactive)
[43]
  GI50: 80.4 µM (inactive)
[44]
  GI50: 75.9 µM (inactive)
[45]
  GI50: 23.6 µM (inactive)
[46]
  GI50: 17.1 µM (inactive)
[47]
  GI50: 56.8 µM (inactive)
[48]
  GI50: 1.64 µM (inactive)
[49]
  GI50: > 100 µM (inactive)
[50]
  GI50: 30.7 µM (inactive)
[51]
  GI50: 26.4 µM (inactive)
[52]
  GI50: 15.4 µM (inactive)
[53]
  GI50: 20.7 µM (inactive)
[54]
  GI50: 37.3 µM (inactive)
[55]
  GI50: 14.1 µM (inactive)
[56]
  GI50: 13.1 µM (inactive)
[57]
  GI50: 27.9 µM (inactive)
